Values after ≈ are worked out from the molar mass of the structure shown. Read-outs that look alike come from different tables or passages of the source.
Legend:
L-1210 ascites cells [1] = experiment: Effect on L-1210 leukemia (i): intraperitoneal inoculation, mean survival days; assay type: in vivo, BDF1-strain mice
Description: (§1) (i) L-1210 ascites cells (1×10^5 cells/head) were inoculated intraperitoneally into BDF1 -strain mice (female, 6 weeks old, each group consisting of 4 mice), and after 24 hours, the intraperitoneal administration of a test drug was started and effected once a day. The effect thereof was judged from the mean survival days. The test drug was used in the form of a solution or suspension in a saline solution or a 0.3% carboxymethyl cellulose-containing saline solution.
T/C was calculated in the same manner as in above b (i).

P-388 ascites cells [2] = experiment: Effect on P-388 leukemia (ii): subcutaneous inoculation, mean tumor weight; assay type: in vivo, BDF1-strain mice; conditions: oral, once a day for 7 days, 11th day
Description: (ii) P-388 ascites cells (1×10^6 cells/head) were inoculated subcutaneously at the right armpit into BDF1 -strain mice (male, 7 weeks old, each group consisting of 8 mice), and after 24 hours, the oral administration of a test drug was started, and effected once a day for 7 days. The effect thereof was judged from the mean weight of the tumor at the 11th day. The test drug was used in the form of a suspension or solution in a 0.3% carboxymethyl cellulose-containing saline solution or a dimethylsulfoxide-propylene glycolphosphate buffer (1:2:1) mixture. T/C was calculated in the same manner as in above b(ii).

Acute toxicity = conditions: mouse, in vivo, ip
Excerpt: The test drugs were used in the form of a solution or suspension in a saline solution or a 0.3% carboxymethyl cellulose-containing saline solution.

HeLa S3 cells = experiment: MIC value against HeLa S3 cells (microplate method); assay type: cell-based; conditions: Homo sapiens, 96 h, 2×10^4 cells/ml, 4 days, Giemsa staining
Excerpt: (§2) a. MIC value against HeLa S3 cells and Ehrlich cells (microplate method) Number of cells: 2×10^4 cells/ml Culture medium: Eagle's MEM+20% calf embryonic serum Culture time: 4 days Judgement: Giemsa staining

[3] = test system: Sarcoma 180 ascites cells; experiment: Effect on Sarcoma 180 carcinoma: intraperitoneal inoculation, mean survival days; assay type: in vivo, ICR-strain mice; conditions: once a day for 7 days
Description: Sarcoma 180 ascites cells (1×10^6 cells/head) were inocualted intraperitoneally into ICR-strain mice (female, 6 weeks old, each group consisting of 4 or 5 mice), and after 24 hours, the intraperitoneal administration of a test drug was started, and effected once a day for 7 days. The effect thereof was judged from the mean survival days. The test drug was used in the form of a solution or suspension in a saline solution or a 0.3% carboxymethyl cellulose-containing saline solution. [formula]

[4] = test system: Ehrlich ascites carcinoma cells; experiment: Effect on Ehrlich carcinoma (iii): subcutaneous inoculation at right armpit, mean tumor weight; assay type: in vivo, ICR-strain mice; conditions: once a day for 7 days, 14th day
Description: (iii) Ehrlich ascites carcinoma cells (4×10^6 cells/head) were inoculated subcutaneously at the right armpit region into ICR-strain mice (female, 7 weeks old, each group consisting of 6 or 7 mice), and after 24 hours, the oral administration or subcutaneous administration at the dorsal region of a test drug was started, and effected once a day for 7 days. The effect thereof was judged from the mean weight of the tumor on the 14th day. The test drug was used in the form of a solution or suspension in a saline solution or a 0.3% carboxymethyl cellulose-containing saline solution.
T/C was calculated in the same manner as in above (ii).

Ehrlich cells = experiment: MIC value against Ehrlich cells (microplate method); assay type: cell-based; conditions: 96 h, 2×10^4 cells/ml, 4 days, Giemsa staining
Excerpt: as §2

[5] = test system: Ehrlich ascites carcinoma cells; experiment: Effect on Ehrlich carcinoma (ii): subcutaneous inoculation at inguinal region, mean tumor weight; assay type: in vivo, ICR-strain mice; conditions: 250 mg/kg, orally, once a day for 5 days, judgement day 15
Description: (ii) Ehrlich ascites carcinoma cells (4×10^6 cells/head) were inoculated subcutaneously at the inguinal region into ICR-strain mice (female, 6 to 7 weeks old, each group consisting of 5 or 4 mice), and after 24 hours, the intraperitaneal or oral administration of a test drug was started and effected once a day for 5 days. The effect thereof was judged from the mean weight of tumor on the 13th or 15th day, respectively.
The test drug was used in the form of a solution or suspension in a saline solution or a 0.3% carboxymethyl cellulose-containing saline solution. [formula]

B-16 melanoma cells = experiment: Effect on B-16 melanoma: subcutaneous inoculation, mean tumor weight; assay type: in vivo, BDF1-strain mice
Description: B-16 melanoma cells (1×10^6 cells/head) were inoculated subcutaneously at the right armpit region into BDF1 -strain mice (male, 7 weeks old, each group consisting of 8 mice), and after 24 hours, the oral administration or subcutaneous administration at the […] […] The test drug was used in the form of a suspension or solution in a 0.3% carboxymethyl cellulose-containing saline solution or dimethylsulfoxide-propylene glycol (1:1) mixture. T/C was calculated in the same manner as in above b(ii).

[6] = test system: Ehrlich ascites carcinoma cells; experiment: Effect on Ehrlich carcinoma (i): intraperitoneal inoculation, mean survival days; assay type: in vivo, ICR-strain mice; conditions: Mus musculus, ip, read-out: T/C (mean survival days)
Description: (i) Ehrlich ascites carcinoma cells (1×10^6 cells/head) were inoculated intraperitoneally into ICR-strain mice (female, 6 to 7 weeks old, each group consisting of 5 or 4 mice), and after 24 hours, the […] The effect thereof was judged from the mean survival days.
The test drugs were used in the form of a solution or suspension in a saline solution or a 0.3% carboxymethyl cellulose-containing saline solution. [formula]

P-388 ascites cells [7] = experiment: Effect on P-388 leukemia (i): intraperitoneal inoculation, mean survival days; assay type: in vivo, BDF1-strain mice; conditions: 100 mg/kg, once a day for 7 days
Description: as §1, with “P-388” for “L-1210”, “(1×10^6” for “(1×10^5”, “day for 7 days.” for “day.”, “solution. T/C was calculated in the same manner as in above b(i).” for “solution.”

[8] = test system: Lewis lung carcinoma cells; experiment: Effect on Lewis lung carcinoma: subcutaneous inoculation, average tumor weight; assay type: in vivo, BDF1-strain mice; conditions: oral, once a day for 7 days, 21st day
Description: Lewis lung carcinoma cells (1×10^6 cells/head) were inoculated subcutaneously at the right armpit region into BDF1 -strain mice (male, 6 weeks old, each group consisting of 5 mice) and after 24 hours, the oral administration of a test drug was started and effected once a day for 7 days. The effect thereof was judged from the average weight of tumor on the 21st day. The test drug was used in the form of a suspension in a 0.3% carboxymethyl cellulose-containing saline solution. T/C was calculated in the same manner as in above b(ii).

L-1210 ascites cells [9] = experiment: Effect on L-1210 leukemia (ii): subcutaneous inoculation, mean survival days and tumor weight; assay type: in vivo, BDF1-strain mice; conditions: oral; for T/C Tumor Weight: 9th day
Description: (ii) L-1210 ascites cells (1×10^6 cells/head) were inoculated subcutaneously into BDF1 -strain mice (male, 6 weeks old, each group consisting of 4 mice), and after 24 hours, the oral administration of a test drug was started, and effected once a day for […]. The effect thereof was judged from the mean survival days and the weight of the tumor on the 9th day.
The test drug was used in the form of a suspension in a 0.3% carboxymethyl cellulose-containing saline solution. T/C was calculated in the same manner as in above b(i) and b(ii).

[10] = 100 mg/kg, orally, 7 administrations, 18th day
[11] = 100* mg/kg, orally, 7 administrations, 19th day, in dimethylsulfoxide-propylene glycol (1:1)

SMILES	T/C (mean survival days) (L-1210 ascites cells [1]; 50 mg/kg, 9 administrations)	LD50 at 168 h (Acute toxicity)	MIC (HeLa S3 cells)	T/C (mean survival days) ([3]; 10 mg/kg)	Survival Ratio in Days Shown in Parenthesis ([3]; 10 mg/kg, 32 days)	T/C (mean survival days) ([3]; 20 mg/kg)	Survival Ratio in Days Shown in Parenthesis ([3]; 20 mg/kg, 32 days)	T/C (mean tumor weight) ([4]; 50 mg/kg, orally)	T/C (mean tumor weight) ([4]; 50 mg/kg, subcutaneously)	T/C (mean tumor weight) ([4]; 100 mg/kg, orally)	MIC (Ehrlich cells)	T/C (mean tumor weight) [5]	T/C (mean tumor weight) (B-16 melanoma cells; [10])	T/C (mean survival days) (L-1210 ascites cells [1]; 200 mg/kg, 3 administrations)	response vs control in vivo at 100 mg/kg ([6]; 168 h, once a day for 7 days)	T/C (mean tumor weight) (P-388 ascites cells [2]; 200 mg/kg)	T/C (average tumor weight) ([8]; 100 mg/kg)	T/C (average tumor weight) ([8]; 200 mg/kg)	T/C (mean tumor weight) (B-16 melanoma cells; [11])	further results
Nc1ccc(Nc2ccc(CN3CCN(Cc4ccccc4)C(=O)C3=O)cc2)nc1 [Compound 4]	164.3%	> 300 mg/kg	< 0.05 µg/mL	> 221%	4/5	> 221%	4/5	82%	15%	65%	< 0.05 µg/mL	56.9%	58%	–	–	–	–	–	–	T/C (mean survival days) (L-1210 ascites cells [1]; 100 mg/kg, 3 administrations): 161.9%; T/C (mean tumor weight) (P-388 ascites cells [2]; 50 mg/kg): 79%; T/C (mean tumor weight) (B-16 melanoma cells; 25 mg/kg, subcutaneously, 7 administrations, 19th day): 38%; T/C (mean tumor weight) (B-16 melanoma cells; 50 mg/kg, orally, 9 administrations, 21st day): 60%; T/C (mean tumor weight) (B-16 melanoma cells; 50* mg/kg, orally, 7 administrations, 19th day, in dimethylsulfoxide-propylene glycol (1:1)): 71%
CCCCCCN1CCN(Cc2ccc(Nc3ncccn3)cc2)C(=O)C1=O [Compound 7]	181%	> 1000 mg/kg	0.39 to 0.78 µg/mL (≈ 1.02 to 2.04 µM)	–	–	–	–	–	–	–	0.39 to 0.78 µg/mL (≈ 1.02 to 2.04 µM)	–	–	159.5%	> 207%	–	–	–	–	T/C (mean survival days) (L-1210 ascites cells [1]; 100 mg/kg, 7 administrations): 168.7%; response vs control in vivo at 50 mg/kg ([6]; 168 h, 50 mg/kg, once a day for 7 days): > 187%; T/C (mean survival days) (P-388 ascites cells [7]): 166.3%; T/C (mean survival days) ([3]; 100 mg/kg): > 183.1%; Survival Ratio in Days Shown in Parenthesis ([3]; 100 mg/kg, 35 days): 3/4
O=C1C(=O)N(Cc2ccc(Nc3ncccn3)cc2)CCN1Cc1ccccc1 [Compound 13]	240.5%	> 1000 mg/kg	0.1 µg/mL (≈ 0.258 µM)	–	–	–	–	–	54%	48%	0.1 µg/mL (≈ 0.258 µM)	32.4%	62%	229%	> 177%	49%	73.2%	67.1%	40%	T/C (mean survival days) (L-1210 ascites cells [1]; 100 mg/kg, 6 administrations): 150%; T/C (mean tumor weight) (P-388 ascites cells [2]; 60* mg/kg, solution in dimethylsulfoxide-propylene glycol-phosphate buffer (1:2:1)): 25%; T/C (mean survival days) ([3]; 50 mg/kg): > 204%; Survival Ratio in Days Shown in Parenthesis ([3]; 50 mg/kg, 32 days): 4/5; T/C (mean tumor weight) ([4]; 200 mg/kg, orally): 26%; T/C Survival Days (L-1210 ascites cells [9]; 50 mg/kg): 120.0%; T/C Tumor Weight (L-1210 ascites cells [9]; 50 mg/kg): 156.6%; T/C Survival Days (L-1210 ascites cells [9]; 100 mg/kg): 194.4%; T/C Tumor Weight (L-1210 ascites cells [9]; 100 mg/kg): 2.6%; T/C Survival Days (L-1210 ascites cells [9]; 250 mg/kg): 127.8%; T/C Tumor Weight (L-1210 ascites cells [9]; 250 mg/kg): 0%; T/C (mean tumor weight) (B-16 melanoma cells; 200 mg/kg, orally, 9 administrations, 21st day): 23%; T/C (mean tumor weight) (B-16 melanoma cells; 50* mg/kg, subcutaneously, 7 administrations, 19th day, in dimethylsulfoxide-propylene glycol (1:1)): 88%
Nc1ccc(Nc2ccc(CN3CCN(Cc4ccccc4)C(=O)C3=O)cc2)nc1Cl [Compound 41]	–	> 200 mg/kg	< 0.05 µg/mL	> 193%	1/5	> 218%	4/5	78%	54%	–	< 0.05 µg/mL	–	88%	–	–	67%	65.9%	43.4%	43%	T/C (mean survival days) (L-1210 ascites cells [1]; 20 mg/kg, 7 administrations): 236%; response vs control in vivo at 50 mg/kg ([6]; 96 h, 50* mg/kg, once a day for 4 days): 195%; T/C (mean tumor weight) (B-16 melanoma cells; 50 mg/kg, subcutaneously, 3 administrations, 19th day): 37%
